Measured values from a melting point compilation (Tetko et al.; mined from patent text by program, amines drawn as free bases though some values may be those of a salt).

Compound	melting point [°C]
COc1cc(COc2nn(-c3ccccc3)cc2-c2cnco2)ccc1OCc1nc(-c2ccco2)oc1C	153 to 154
Nc1ccc(NC(=O)NC(=O)c2c(F)cccc2F)cc1	240
CC(C)Nc1nc2cc(C#N)ccc2[nH]1	185 to 190
CN(C)Cc1nc(-c2ccccc2)cn1Cc1ccccc1	78 to 80
CC(C(=O)O)c1ccc(-c2ccc(Br)cc2)c(F)c1 (configuration not stated)	133 to 135
COc1ccnc(CSc2nc3cscc3[nH]2)c1	172 to 175
Cc1cn2c(C(F)(F)F)nnc2c2ccccc12	162 to 164
Nc1nc2ccc(CCN3CCC(Oc4ccccc4)CC3)cc2s1	164 to 167
CC(C)(C)CC(C)(C)Nc1cc(Cl)ccc1[N+](=O)[O-]	108
CSc1ccc(CC(NC(=O)OCc2ccccc2)C(O)C#N)cc1 (configuration not stated)	123 to 125
CC1CC(C)OP(=O)(Cc2ccc([N+](=O)[O-])cc2)O1 (configuration not stated)	152 to 153
OCCCc1ccncc1O	123 to 126
COc1ccc2[nH]cc(CCNC(=O)C(F)(F)F)c2c1	135 to 136
O=C(c1ccc(-c2nc(C(=O)O)co2)cc1)c1cccnc1	281 to 282
COc1cccc(CCC(=O)O)c1OCCCc1cn(-c2ccc(C(F)(F)F)cn2)nc1C(C)C	112 to 113
O=S(=O)(c1ccc(Br)cc1)N1CCN(CC2CCN(c3ccncc3)CC2)CC1	179 to 180
O=C1CCC(c2ccccc2)(c2ccccc2)[C@@H]2CN(C(=O)Cc3ccccc3Br)C[C@H]12 (racemic)	217
COc1ccc(C(=O)C(Cl)=NO)cc1	118 to 125
COc1ccc(S(=O)(=O)Nc2ccccc2NC(=O)c2ccccn2)cc1	174 to 175
Fc1cccc(-c2ccc3nnn(Cc4ccc5ncccc5c4)c3n2)c1	145 to 147
COC1(C#Cc2ncn3c2CN(C)C(=O)c2c(Cl)cccc2-3)CCCC1	174 to 175
CCN(CC)C(=O)c1nc(C)n2c1CN=C(c1ccccc1F)c1cc(Cl)ccc1-2	182 to 188
CCOC(=O)CN[C@H]1CSc2ccccc2N(CC(=O)O)C1=O	223 to 226
COc1cc(C)nc(-n2cncn2)n1	142 to 143

Compound	melting point [°C]
Cc1cccc2c(=O)n(S(=O)(=O)c3ccc(Cl)cc3)c(=O)[nH]c12	221 to 225
O=C(NN1CCc2ccccc2C(Oc2ccc(C(F)(F)F)cc2)C1)C(F)(F)F (configuration not stated)	192 to 195
O=C(Nc1cccc2c(N=P(c3ccccc3)(c3ccccc3)c3ccccc3)ccnc12)c1c(Cl)cccc1Cl	276 to 281
Oc1ccc(-c2ncc3ncc(-c4cccc(O)c4)cc3n2)cc1	256 to 257
CC(CCc1cc2cccnc2n(-c2cccc(N(C)C)c2)c1=O)c1ccncc1 (configuration not stated)	148 to 154
NCC1CCc2[nH]c3ccc(Cl)cc3c2C1 (configuration not stated)	142 to 144
O=S(Cc1cccc(O)c1)c1nc2cnccc2[nH]1 (configuration not stated)	224 to 227
COc1cc2c(cc1OC)CN(CCc1ccc(NC(=O)c3cccc4c(=O)c5cccc(OC)c5[nH]c34)cc1)C2	215 to 225
COC(=O)[C@H]1O[C@H]1C(=O)N(CC(=O)OC(C)(C)C)c1ccc(OC)cc1	89
NC(=O)c1nccc(Oc2ccc(N)cc2F)c1Cl	217 to 218
O=C1N(Cc2ncccc2Cl)c2ccccc2C12COc1cc3c(cc12)OCCO3 (configuration not stated)	176 to 178
COC(=O)NCc1nc(C(C)C)c(Sc2cc(Cl)cc(Cl)c2)n1C	138 to 139
CC1(C)COc2ccc(C[C@@H](NC(=O)c3cccc4c(Cl)cccc34)[C@@H](O)c3cccc(Cl)c3)cc21 (racemic)	191 to 192
CCOC(=O)c1sc(-n2ccc(OC)cc2=O)nc1C	163 to 165
Cc1cccc(-c2[nH]c(C(C)C)nc2-c2ccc(F)c(-c3cc[nH]c3)c2)n1	106 to 110
COC1(c2ccccc2)CCc2c(C(=O)N3CCC3)cc3c(nc(C)n3C)c2O1 (configuration not stated)	147 to 150
COC(=O)c1ccc(C(=O)CCC(=O)c2ccc3c(c2)C(C)(C)CCC3(C)C)cc1	126 to 129
COc1cc(Cl)ccc1NC(=O)C1CCCn2c1nc(-c1ccncn1)cc2=O (configuration not stated)	251 to 253
COc1cccc(CNC(=O)c2nc3cccc(OCCN4CCC(C(=O)O)CC4)c3c(=O)[nH]2)c1	127 to 130
CCOC(=O)N(C)C1CCc2c([nH]c3ccccc23)C1 (configuration not stated)	167 to 168
CC(C)N(CCN1C(=O)/C(=N/NC(N)=O)c2cc(Br)ccc21)C(C)C	149 to 153
Cc1nnc(N2N=C(c3ccc([N+](=O)[O-])cc3)c3cc4c(cc3C[C@H]2C)OCO4)o1	202 to 204
CCc1cccc(CC(=O)O)c1OCCCc1cn(-c2ccc(C(F)(F)F)cn2)nc1C(CC)CC	130 to 131
O=Cc1ccc2c(c1)OC(c1ccccc1)(c1ccccc1)O2	157 to 159

Compound	melting point [°C]
CCCCNC(=O)Cc1ccc(O)c(C2CCCCC2)c1	118 to 120
N#Cc1cc2c([nH]c1=O)CCc1ccccc1-2	301 to 303
COc1ccc(C)cc1NC(=O)Nc1ccc(N2CCN(C(=O)C3CCCCC3)CC2)cc1	222
COc1ccc(C(=O)Nc2ccccc2)cc1NCc1ccc(OC(C)=O)cc1	193 to 195
Cc1ccc(S(=O)(=O)OC[C@H]2COc3ccc(Cl)cc3O2)cc1	90 to 91
O=C(Nc1cc(C(F)(F)F)cc2ncn(-c3ccccc3)c12)c1ccccc1	152 to 155
CCSc1nn2c(-c3ccc(OC)cc3)nnc2c2ccccc12	176 to 178
COc1ccc(C)cc1NC(=O)Nc1ccc(C2=CCN(C(=O)Nc3ccc(OCCO)cc3Cl)CC2)cc1	117 to 120
O=C1Nc2cc(Cl)ccc2C1c1ncnc2nn(C3CCCCC3)cc12 (configuration not stated)	299 to 303
CCN(CC)C(=O)c1c(CO)cccc1[Si](C)(C)C	81 to 82.5
CC(C)(C(=O)O)c1ccsc1	78 to 80.5
COc1ccc(-n2nc(Cl)cc2-c2ccc(S(C)(=O)=O)cc2)cc1C#N	191 to 194
COc1cccc(CN2CCC(c3cc(-c4ccc(Cl)cc4)[nH]n3)CC2)c1	50 to 52
Cc1c(CBr)cccc1C(F)(F)C(F)(F)c1ccccc1	67 to 71
Nc1nc(Cl)c2ccccc2n1	275 to 278
Nc1c(Cl)cccc1C(=O)c1ccccc1F	86 to 87.5
CCOc1cccc(NC(=O)N2CCc3cc(SC)c(C(F)(F)F)cc32)c1	233 to 234
COc1ccc2nccc(CCC[C@@H]3CCN(CCCc4cccc(F)c4)C[C@@H]3C(=O)O)c2c1	206
CCCSc1sc(C(=O)OCC)c2c1-c1nn(C)cc1CC2	90 to 91
O=C(NCCc1ccccn1)c1ccccc1-c1ccccc1CNS(=O)(=O)c1ccc(F)cc1	130
C[C@H](NC(=O)COc1ccc2c(-c3ccccc3)nn(C)c2n1)c1ccccc1	55 to 56
C#CCCCOc1ccc(C=O)cc1OC	91 to 92
CNc1ccc(-c2c[nH]cn2)cc1	75 to 76
CNC(=S)NS(=O)(=O)c1cc(CCNC(=O)c2cnc3ccccc3c2)ccc1OC	85
